In publication PMC6161602, “Synthesis and characterisation of (Z)-styrylbenzene derivatives as potential selective anticancer agents” (Journal of Enzyme Inhibition and Medicinal Chemistry, 2018):

Experiments:
HeLa cells = tested on: HeLa cells; parameters: method as in PMID 27887843; settings: printed in Figure 1, previous experiment ref 2; cited from earlier work
L-02 cells = tested on: L-02 cells; parameters: method as in PMID 27887843; settings: L-02, printed in Figure 1, previous experiment ref 2; cited from earlier work
[1] = tested on: nine human cancer cell lines (MGC-803, A549, HepG2, AGS, BEL-7402, HCT116, HeLa, SGC-7901, and MCF-7); assay: MTT assay, panel of cell lines (result in words); type: cell-based; settings: against all nine cancer cell lines
Description: (§1) All human cell lines were used in this study. MGC-803 late-stage differentiation gastric cancer cell, A549 lung cancer cell, HepG2 hepatoma cell, AGS gastric cancer cell, BEL-7402 liver cancer cell, HCT-116 colorectal cancer cell, HeLa cervical cancer cell, SGC-7901 early differentiation gastric cancer cell, L-02 normal liver cell, MCF-7 breast cancer cell, and MCF-10A normal breast cell were initially purchased from American Type Culture Collection (ATCC, Manassas, VA, USA). RPMI-1640 media, Dulbecco’s modified Eagle’s medium (DMEM), and foetal bovine serum (FBS) were provided from Gibco Company (Grand Island, NY, USA). The cells were maintained in DMEM or RPMI-1640, supplemented with 10% FBS, 100 IU/mL penicillin and […] (Grand Island, NY, USA), and at 37 °C in a humidified atmosphere containing 5% CO2.
(§2) Cells were plated in 96-well plates at a density of 30–40% to ensure exponential growth throughout the experimental period, and then allowed to adhere for 1 day[21]. Next, the cells were treated with four serial concentrations (1, 10, 50, and 100 µM) of each compound. Taxol, CA-4, and CA-4P (phosphorylated form of CA-4) were used as positive controls. After 48 h incubation, MTT solution was added to each well at a final concentration of 2 mg/mL, and incubated for an additional 4 h. Next, the MTT solution was removed and 150 µL of dimethyl sulphoxide (DMSO)/well was added (Sigma-Aldrich, St Louis, MO, USA). The plates were shaken vigorously at RT to ensure complete solubilisation, and absorption at 492 nm was determined.
(§3) According to standard protocol, preliminary in vitro anti-proliferative activities of the synthesised compounds were evaluated by MTT assay, using nine human cancer cell lines (MGC-803, A549, HepG2, AGS, BEL-7402, HCT116, HeLa, SGC-7901, and MCF-7) and two normal human cell lines (L-02 and MCF-10A), and compared with those of CA-4, CA-4P, and taxol.

[2] = tested on: HeLa cervical cancer cell; assay: MTT cell growth inhibition assay, HeLa; type: cell-based, human; settings: Homo sapiens, 48 h incubation
Description: as §1, §2, §3

HCT116 cells = assay: MTT cell growth inhibition assay, HCT116; type: cell-based, human; settings: for IC50: Homo sapiens, HCT-116, MTT, 48 h incubation, HCT116
Description: as §1, §2, §3

AGS cells = assay: MTT cell growth inhibition assay, AGS; type: cell-based, human; settings: for IC50: Homo sapiens, MTT, 48 h incubation, AGS
Description: as §1, §2, §3

A549 lung cancer cell = assay: MTT cell growth inhibition assay, A549; type: cell-based, human; settings: for IC50: Homo sapiens, MTT, 48 h incubation, A549
Description: as §1, §2, §3

HepG2 hepatoma cell = assay: MTT cell growth inhibition assay, HepG-2; type: cell-based, human; settings: for IC50: Homo sapiens, HepG2, MTT, 48 h incubation, HepG-2
Description: as §1, §2, §3

L-02 normal liver cell = assay: MTT cell growth inhibition assay, L-02 (normal); type: cell-based, human; settings: Homo sapiens, 48 h incubation, L-02 normal cells
Description: as §1, §2, §3

MCF-7 breast cancer cell = assay: MTT cell growth inhibition assay, MCF-7; type: cell-based, human; settings: for IC50: Homo sapiens, MCF7, MTT, 48 h incubation, MCF-7
Description: as §1, §2, §3

BEL-7402 cells [3] = assay: MTT cell growth inhibition assay, BEL-7402; type: cell-based, human; settings: for IC50: Homo sapiens, MTT, 48 h incubation, Bel-7402
Description: as §1, §2, §3

MGC-803 cells = assay: MTT cell growth inhibition assay, MGC-803; type: cell-based, human; settings: for IC50: MTT, 48 h incubation, MGC-803
Description: as §1, §2, §3

[4] = tested on: MCF-10A normal breast cell; assay: MTT cell growth inhibition assay, MCF-10A (normal); type: cell-based, human; settings: Homo sapiens, 48 h incubation, MCF-10A normal cells
Description: as §1, §2, §3

[5] = tested on: SGC-7901 early differentiation gastric cancer cell; assay: MTT cell growth inhibition assay, SGC-7901; type: cell-based, human; settings: Homo sapiens, 48 h incubation
Description: as §1, §2, §3

BEL-7402 cells [6] = assay: Analysis of apoptosis by flow cytometry (Annexin V-FITC/PI); type: cell-based, human; settings: BEL-7402, 0.1 µM, 12 h; vehicle 4.7%
Protocol: Apoptosis was detected using an apoptosis detection kit. BEL-7402 cells were plated in 6-well plates (5.0 × 10^5 cells/well) and incubated at 37 °C overnight. Exponentially growing cells were then incubated with 6h at either 0.01 or 0.1 µM, or taxol at 0.1 µM. Vehicle group was treated with 0.1% DMSO. Following 12 h of incubation, cells were analysed for apoptosis as previously described, using a FACSCalibur flow cytometer with Cell Quest software (Becton-Dickinson, Franklin Lakes, NJ, USA).

Structure (SMILES) | in vitro anticancer activity [1] | IC50 [2] | IC50 (HCT116 cells) | melting point | IC50 (AGS cells) | IC50 (A549 lung cancer cell) | IC50 (HepG2 hepatoma cell) | IC50 (L-02 normal liver cell) | IC50 (MCF-7 breast cancer cell) | IC50 (BEL-7402 cells [3]) | IC50 (MGC-803 cells; Homo sapiens, MGC-803, 48 h) | IC50 [4] | IC50 [5] | further results
CCOc1ccc(/C=C(\C#N)c2cc(OC)cc(OC)c2)cc1 [Compound 3] | – | – | – | – | – | – | – | – | – | – | – | – | – | IC50 (HeLa cells): 7.7 µM; IC50 (L-02 cells): > 100 µM
COc1cc(/C(C#N)=C/c2ccc([N+](=O)[O-])cc2)cc(OC)c1OC [Compound 6a, (Z)-3-(4-Nitrophenyl)-2-(3,4,5-trimethoxyphenyl)acrylonitrile] | extremely poor | > 100 µM | > 100 µM | 174 to 176 °C | > 100 µM | > 100 µM | > 100 µM | > 100 µM | > 100 µM | > 100 µM | > 100 µM | > 100 µM | > 100 µM | –
COc1cc(/C(C#N)=C/c2ccc(Oc3ccccc3)cc2)cc(OC)c1OC [Compound 6b] | extremely poor | > 100 µM | > 100 µM | 92 to 94 °C | > 100 µM | > 100 µM | > 100 µM | > 100 µM | > 100 µM | > 100 µM | > 100 µM | > 100 µM | > 100 µM | –
COc1cccc(/C=C(\C#N)c2cc(OC)c(OC)c(OC)c2)c1 [Compound 6c, (Z)-3-(3-Methoxyphenyl)-2-(3,4,5-trimethoxyphenyl)acrylonitrile] | extremely poor | > 100 µM | > 100 µM | 144 to 146 °C | > 100 µM | > 100 µM | > 100 µM | > 100 µM | 65.1 ± 6.64 µM | > 100 µM | – | > 100 µM | > 100 µM | IC50 (MGC-803 cells; Homo sapiens): 22.6 ± 9.25 µM
COc1cc(/C=C(\C#N)c2cc(OC)c(OC)c(OC)c2)cc(OC)c1OC [Compound 6e, (Z)-2,3-Bis(3,4,5-trimethoxyphenyl)acrylonitrile] | weak anticancer activity | > 100 µM | 32.1 ± 5.25 µM | 84 to 86 °C | 44.6 ± 9.11 µM | > 100 µM | > 100 µM | 70.6 ± 7.65 µM | 32.9 ± 17.6 µM | 31.2 ± 2.01 µM | > 100 µM | 15.6 ± 2.45 µM | > 100 µM | –
COc1cc(/C(C#N)=C/c2ccccn2)cc(OC)c1OC [Compound 7b, (Z)-3-(Pyridin-2-yl)-2-(3,4,5-trimethoxyphenyl)acrylonitrile] | extremely poor | > 100 µM | > 100 µM | 128 to 130 °C | > 100 µM | > 100 µM | > 100 µM | > 100 µM | 16 ± 5.67 µM | 44.6 ± 32.7 µM | > 100 µM | 33.4 ± 17.4 µM | > 100 µM | –
Oc1ccc(/C=C/c2cc(O)cc(O)c2)cc1 [Resveratrol, (E)-3,5,4′-trihydroxystilbene] | – | – | – | – | – | – | – | – | – | – | – | – | – | IC50 (HeLa cells): 120 µM
CC(=O)O[C@H]1C(=O)[C@@]2(C)[C@H]([C@H](OC(=O)c3ccccc3)[C@]3(O)C[C@H](OC(=O)[C@H](O)[C@@H](NC(=O)c4ccccc4)c4ccccc4)C(C)=C1C3(C)C)[C@]1(OC(C)=O)CO[C@@H]1C[C@@H]2O [Taxol, reference compound] | – | 13 ± 0.47 µM | 0.03 ± 0.01 µM | – | 0.02 ± 0.01 µM | 0.44 ± 0.02 µM | 0.94 ± 0.03 µM | > 100 µM | 0.08 ± 0.01 µM | 0.09 ± 0.02 µM | < 0.06 µM | 0.18 ± 0.02 µM | > 100 µM | total apoptotic cells (early + late apoptotic cells) (BEL-7402 cells [6]): 10.7%; SI IC50 (L-02/HCT116) (HCT116 cells; selectivity index, IC50 (L-02)/IC50 (HCT116)): >3333; SI IC50 (L-02/AGS) (AGS cells; selectivity index, IC50 (L-02)/IC50 (AGS)): >5000; SI IC50 (L-02/A549) (A549 lung cancer cell; selectivity index, IC50 (L-02)/IC50 (A549)): >227.2; SI IC50 (L-02/HepG-2) (HepG2 hepatoma cell; selectivity index, IC50 (L-02)/IC50 (HepG-2)): >106.3; SI IC50 (MCF-10A/MCF-7) (MCF-7 breast cancer cell; selectivity index, IC50 (MCF-10A)/IC50 (MCF-7)): >2.2; SI IC50 (L-02/BEL-7402) (BEL-7402 cells [3]; selectivity index, IC50 (L-02)/IC50 (BEL-7402)): >1111; IC50 (MGC-803 cells): 0.06 ± 0.01 µM; SI IC50 (L-02/MGC-803) (MGC-803 cells; selectivity index, IC50 (L-02)/IC50 (MGC-803)): >1666
